# Legend:
# Pyrenophora teres = Pyrenophora teres / barley / leaf disc preventative (net blotch); assay type: in vivo; details: foliar, compared to untreated control
# Description: Example B12: Pyrenophora teres/Barley/Leaf Disc Preventative (Net Blotch) Barley leaf segments cv. Hasso are placed on agar in a multiwell plate (24-well format) and sprayed with the formulated test compound diluted in water. The leaf segments are inoculated with a spore suspension of the fungus 2 days after application. The inoculated leaf segments are incubated at 20° C. and 65% rh under a light regime of 12 h light/12 h darkness in a climate cabinet and the activity of a compound is assessed as disease control compared to untreated when an appropriate level of disease damage appears in untreated check leaf segments (5 to 7 days after application).
# [1] = tested on: Mycosphaerella graminicola (Septoria tritici); test: Mycosphaerella graminicola (Septoria tritici) / liquid culture (Septoria blotch); assay type: cell-based; details: Zymoseptoria tritici, compared to untreated control
# Description: (§1) Example B15: Mycosphaerella graminicola (Septoria tritici)/Liquid Culture (Septoria Blotch) Conidia of the fungus from cryogenic storage are directly mixed into nutrient broth (PDB potato dextrose broth). After placing a (DMSO) solution of test compound into a microtiter plate (96-well format), the nutrient broth containing the fungal spores is added. The test plates are incubated at 24° C. and the inhibition of growth is determined photometrically 4 to 5 days after application.
# [2] = tested on: Mycosphaerella arachidis (Cercospora arachidicola); test: Mycosphaerella arachidis (Cercospora arachidicola) / liquid culture (early leaf spot); assay type: cell-based; details: compared to untreated control
# Description: as §1, with “B9:” for “B15:”, “arachidis (Cercospora arachidicola)/Liquid” for “graminicola (Septoria tritici)/Liquid”, “(Early Leaf Spot)” for “(Septoria Blotch)”
# [3] = tested on: Glomerella lagenarium (Colletotrichum lagenarium); test: Glomerella lagenarium (Colletotrichum lagenarium) / liquid culture (anthracnose); assay type: cell-based; details: Colletotrichum orbiculare, compared to untreated control
# Description: as §1, with “B3: Glomerella lagenarium (Colletotrichum lagenarium)/Liquid” for “B15: Mycosphaerella graminicola (Septoria tritici)/Liquid”, “(Anthracnose)” for “(Septoria Blotch)”, “measured” for “determined”, “photometrically 3 to” for “photometrically”, “4” for “4 to 5”
# [4] = tested on: Monographella nivalis (Microdochium nivale); test: Monographella nivalis (Microdochium nivale) / liquid culture (foot rot cereals); assay type: cell-based; details: compared to untreated control
# Description: as §1, with “B8: Monographella nivalis (Microdochium nivale)/Liquid” for “B15: Mycosphaerella graminicola (Septoria tritici)/Liquid”, “(Foot Rot Cereals)” for “(Septoria Blotch)”
# Alternaria solani = Alternaria solani / tomato / leaf disc (early blight); assay type: in vivo; details: foliar, compared to untreated control
# Description: Example B1: Alternaria solani/Tomato/Leaf Disc (Early Blight) Tomato leaf disks cv. Baby are placed on agar in multiwell plates (24-well format) and sprayed with the formulated test compound diluted in water. The leaf disks are inoculated with a spore suspension of the fungus 2 days after application. The inoculated leaf disks are incubated at 23° C./21° C.
# Phytophthora infestans = assay type: in vivo; details: 200 ppm; tomato leaf disc preventative; compared to untreated control
SMILES,pest or weed control at 200 ppm (Pyrenophora teres) [%],inhibition of growth at 20 ppm [1] [%],inhibition of growth at 20 ppm [2] [%],inhibition of growth at 20 ppm [3] [%],inhibition of growth at 20 ppm [4] [%],pest or weed control at 200 ppm (Alternaria solani) [%],control of Phytophthora infestans (Phytophthora infestans)
"Cc1c(C2CN(C(=O)NCCCCC(F)F)Cc3ccccc32)cnn1C (centres unmarked) [Compound P-50, N-(5,5-difluoropentyl)-4-(1,5-dimethylpyrazol-4-yl)-3,4-dihydro-1H-isoquinoline-2-carboxamide]",≥ 80,≥ 80,–,–,–,–,–
"CCCCCCCC(=O)N1Cc2ccccc2C(c2cnn(C)c2C)C1 (centres unmarked) [Compound P-10, 1-[4-(1,5-dimethylpyrazol-4-yl)-3,4-dihydro-1H-isoquinolin-2-yl]octan-1-one]",–,≥ 80,≥ 80,≥ 80,≥ 80,–,–
"CCCCCCC(=O)N1Cc2ccccc2C(c2cnn(C)c2C)C1 (centres unmarked) [Compound P-4, 1-[4-(1,5-dimethylpyrazol-4-yl)-3,4-dihydro-1H-isoquinolin-2-yl]heptan-1-one]",–,≥ 80,≥ 80,≥ 80,≥ 80,≥ 80,–
"Cc1c([C@H]2CN(C(=O)CCc3ccc(F)cc3F)[C@@H](C)c3ccccc32)cnn1C (racemic) [Compound P-45, 3-(2,4-difluorophenyl)-1-[rac-(1S,4S)-4-(1,5-dimethylpyrazol-4-yl)-1-methyl-3,4-dihydro-1H-isoquinolin-2-yl]propan-1-one]",≥ 80,≥ 80,≥ 80,≥ 80,≥ 80,≥ 80,–
"Cc1c(C2CN(C(=O)NCCC3CCCCC3)Cc3ccccc32)cnn1C (centres unmarked) [Compound P-42, N-(2-cyclohexylethyl)-4-(1,5-dimethylpyrazol-4-yl)-3,4-dihydro-1H-isoquinoline-2-carboxamide]",–,≥ 80,≥ 80,–,≥ 80,–,–
"Cc1c(C2CN(C(=O)NCCCCCF)Cc3ccccc32)cnn1C (centres unmarked) [Compound P-49, 4-(1,5-dimethylpyrazol-4-yl)-N-(5-fluoropentyl)-3,4-dihydro-1H-isoquinoline-2-carboxamide]",≥ 80,≥ 80,–,–,–,–,–
"CCCCCOC(=O)N1C[C@H](c2cnn(C)c2C)c2ccccc2[C@@H]1C (racemic) [Compound P-28, pentyl rac-(1S,4S)-4-(1,5-dimethylpyrazol-4-yl)-1-methyl-3,4-dihydro-1H-isoquinoline-2-carboxylate]",–,≥ 80,≥ 80,≥ 80,≥ 80,≥ 80,–
"Cc1c([C@H]2CN(C(=O)CCCCC(F)F)[C@@H](C)c3ccccc32)cnn1C (racemic) [Compound P-27, 6,6-difluoro-1-[rac-(1S,4S)-4-(1,5-dimethylpyrazol-4-yl)-1-methyl-3,4-dihydro-1H-isoquinolin-2-yl]hexan-1-one]",≥ 80,≥ 80,≥ 80,–,≥ 80,–,–
"Cc1c(C2CN(C(=O)CCC3CCCC3)Cc3ccccc32)cnn1C (centres unmarked) [Compound P-17, 3-cyclopentyl-1-[4-(1,5-dimethylpyrazol-4-yl)-3,4-dihydro-1H-isoquinolin-2-yl]propan-1-one]",–,≥ 80,–,–,–,–,at least 80%
"Cc1c(C2CN(C(=O)CCCCCC(F)(F)F)Cc3ccccc32)cnn1C (centres unmarked) [Compound P-30, 1-[4-(1,5-dimethylpyrazol-4-yl)-3,4-dihydro-1H-isoquinolin-2-yl]-7,7,7-trifluoro-heptan-1-one]",–,≥ 80,≥ 80,–,≥ 80,–,–
"Cc1c(C2CN(C(=O)CCc3ccc(F)cc3)Cc3ccccc32)cnn1C (centres unmarked) [Compound P-7, 1-[4-(1,5-dimethylpyrazol-4-yl)-3,4-dihydro-1H-isoquinolin-2-yl]-3-(4-fluorophenyl)propan-1-one]",–,≥ 80,–,–,–,≥ 80,–
"Cc1c([C@H]2CN(C(=O)CCCCCC(F)(F)F)[C@@H](C)c3ccccc32)cnn1C (racemic) [Compound P-29, 7,7,7-trifluoro-1-[rac-(1S,4S)-4-(1,5-dimethylpyrazol-4-yl)-1-methyl-3,4-dihydro-1H-isoquinolin-2-yl]heptan-1-one]",≥ 80,≥ 80,≥ 80,–,≥ 80,≥ 80,–
"CCCCCNC(=O)N1C[C@H](c2cnn(C)c2C)c2ccccc2[C@@H]1C (racemic) [Compound P-43, rac-(1S,4S)-4-(1,5-dimethylpyrazol-4-yl)-1-methyl-N-pentyl-3,4-dihydro-1H-isoquinoline-2-carboxamide]",≥ 80,≥ 80,≥ 80,–,≥ 80,–,–
"Cc1c([C@H]2CN(C(=O)CCCCC3CC3)[C@@H](C)c3ccccc32)cnn1C [Compound P-47, 5-cyclopropyl-1-[(1S,4S)-4-(1,5-dimethylpyrazol-4-yl)-1-methyl-3,4-dihydro-1H-isoquinolin-2-yl]pentan-1-one]",≥ 80,≥ 80,≥ 80,≥ 80,≥ 80,≥ 80,–
"Cc1c(C2CN(C(=O)CCc3ccc(Cl)cc3)Cc3ccccc32)cnn1C (centres unmarked) [Compound P-22, 3-(4-chlorophenyl)-1-[4-(1,5-dimethylpyrazol-4-yl)-3,4-dihydro-1H-isoquinolin-2-yl]propan-1-one]",≥ 80,≥ 80,≥ 80,–,–,≥ 80,–
"CCCCCNC(=O)N1Cc2ccccc2C(c2cnn(C)c2C)C1 (centres unmarked) [Compound P-31, 4-(1,5-dimethylpyrazol-4-yl)-N-pentyl-3,4-dihydro-1H-isoquinoline-2-carboxamide]",≥ 80,≥ 80,≥ 80,–,–,≥ 80,–
"Cc1c(C2CN(C(=O)NCC3CCCCC3)Cc3ccccc32)cnn1C (centres unmarked) [Compound P-36, N-(cyclohexylmethyl)-4-(1,5-dimethylpyrazol-4-yl)-3,4-dihydro-1H-isoquinoline-2-carboxamide]",≥ 80,≥ 80,–,–,–,–,–
"Cc1c([C@H]2CN(C(=O)OCCC3CCCCC3)[C@@H](C)c3ccccc32)cnn1C (racemic) [Compound P-16, 2-cyclohexylethyl rac-(1S,4S)-4-(1,5-dimethylpyrazol-4-yl)-1-methyl-3,4-dihydro-1H-isoquinoline-2-carboxylate]",–,≥ 80,≥ 80,≥ 80,≥ 80,–,–
"Cc1c(C2CN(C(=O)OCCC3CCCCC3)Cc3ccccc32)cnn1C (centres unmarked) [Compound P-2, 2-cyclohexylethyl 4-(1,5-dimethylpyrazol-4-yl)-3,4-dihydro-1H-isoquinoline-2-carboxylate]",–,≥ 80,≥ 80,≥ 80,≥ 80,–,–
"CCCCCCC(=O)N1C[C@H](c2cnn(C)c2C)c2ccccc2[C@@H]1C (racemic) [Compound P-11, 1-[rac-(1S,4S)-4-(1,5-dimethylpyrazol-4-yl)-1-methyl-3,4-dihydro-1H-isoquinolin-2-yl]heptan-1-one]",≥ 80,≥ 80,≥ 80,≥ 80,≥ 80,≥ 80,–

# From patent US20260193226A1, “MICROBIOCIDAL TETRAHYDROISOQUINOLINE DERIVATIVES” (SYNGENTA CROP PROTECTION AG, priority 2022, published 2026)
